# Assay results from US9005981B2, “Assays utilizing nicotinic acetylcholine receptor subunits” (priority 2008, dated 2015).
# Where two headings read alike, the source gives them in different places.
# Assays:
# [1] = test system: D α6 and C. elegans ric3 expressed in D.Mel-2 cells; type: binding, Drosophila melanogaster
# Method: D.Mel-2 cells were seeded into 75 cm^2 flasks at 1.9×10^7 cells/flask in Drosophila SFM containing antibiotic/antimicotic and incubated overnight at 27° C. The transfection mix was prepared in 12×75 mm polystyrene tubes by mixing 1630 μl sterile water, 40 μg pIB/V5-HisA/ric3, 40 μg pIB/V5-HisA/30D and 250 μl CellFectin. The reagents were mixed gently and incubated at room temp for 15 minutes. While the transfection mix was incubating, the cells were washed with 10 ml fresh Drosophila SFM without antibiotics; this media was then removed from the cells and replaced with 6 ml fresh Drosophila SFM without antibiotics. To the transfection mix was added 4 ml Drosophila SFM without antibiotics and this was then transferred to the flask. The reagents were gently mixed by pipetting up and down and then incubated overnight at 27° C.
# D.Mel-2 cells were purchased from Invitrogen (Carlsbad, Calif.) and grown in disposable 125 ml shake flasks using 50 ml volume. Cells were subcultured to 3×10^5 cells/ml twice per week in Drosophila SFM containing 5 ml/L Antibiotic-Antimycotic (100×) (Gibco, Carlsbad, Calif.). D.Mel-2 cells were seeded into a 12-well plate at a cell density of 5×10^5 cells/well and incubated overnight at 27° C. In a 12×75 mm polystyrene tube 6 μg pIB/V5-HisA/ric3, 82 μl sterile H2O and 12 μl CellFectin (Invitrogen, Carlsbad, Calif.) were added. The sample was mixed gently and incubated at room temperature for 15 minutes. While the transfection mix was incubating, media from one well of cells was removed and replaced with 1 ml fresh media without antibiotics. After 15 minutes, the media was removed from cells. To this transfection mix, 0.5 ml media (no antibiotics) was added. This solution was then added to the cells. The mixture was incubated for 48 hrs at 27° C. After 48 hrs, the cells were scraped from the plate using a cell scraper and split into 4 wells of a 6-well plate each containing 2 ml Drosophila SFM with antibiotics. Cells were allowed to attach for 1 hr at 27° C.; the media was removed and replaced with 2 ml fresh media containing 25 μg/ml Blasticidin S (Invitrogen, Carlsbad, Calif.). Cells were incubated at 27° C. for 5 days. After 5 days, the cells were scraped loose from the wells and combined into one tube. Cells were spun down at 600 rpm in a tabletop centrifuge; the media was removed and the cells were resuspended into a 50 ml shake culture in fresh Drosophila SFM containing 25 μg/ml Blasticidin S. The cells were incubated at 27° C./140 rpm. Cells were subcultured twice weekly back to cell density of 3×10^5 cells/ml. After 4 weeks the selection was cut back to 10 μg/ml Blasticidin S. After 3 months of growth under selection, a 12 well plate was seeded at 5×10^5 cells/well and cells were incubated over night at 27° C. The following reagents were added to each of three 12×75 mm polystyrene tubes: 2 μg pMT/V5-HisA/30D, 0.15 μg pCoHygro (Invitrogen, Carlsbad, Calif.) (a […] ratio of expression plasmid:selection plasmid), 89 μl sterile H2O and 12 μl CellFectin. The samples were mixed gently and incubated at room temp for 15 minutes and then transfected as described above. After 24 hrs, the media containing transfection mix was removed and replaced with 1 ml fresh media containing antibiotics. The incubation was continued at 27° C. for another 24 hrs. Cells were scraped loose from the 12-well plate (3 wells) and split into 2, 6-well plates. Cells were allowed to attach for 6 hours at which point, the media was replaced with 2 ml/well fresh media containing 200, 150, 100 or 50 μg/ml hygromycin B. The incubation was continued at 27° C.; every 4-5 days, the media was replaced with media containing hygromycin every 4-5 days. After 2 weeks of selection in the plates, the cells from the 200 μg/ml selection, were scraped loose and then gently pelleted and resuspended in 25 ml fresh media containing 200 μg/ml hygromycin B and then placed into a 125 ml shake flask.
# [2] = test system: Drosophila melanogaster flies of the Oregon wild-type strain; assay: Fly mortality screen, wild-type flies; type: in vivo; settings: 100 ppm in 10% sucrose via cotton wicks, 72 hours post-treatment
# Method: (§1) Ten adult Drosophila melanogaster flies (5 males and 5 females) of the Oregon wild-type strain and ten adult flies of a spinosyn-resistant strain were used per treatment. Two sets (of 10 flies) were set-up per treatment. Stocks of spinosyn A and a 21-butenyl-spinosyn analog were formulated at 1000 ppm in 2:1 acetone:water and then diluted to the required concentration in 10% sucrose. Vials received 500 ul of treatment (or solvent for controls) via cotton wicks (approximately ¼ inch) and flies were added to each vial and capped with a cotton plug. Flies were monitored over 72 hours post-treatment while being maintained at room-temperature with a 12:12 light:dark cycle.
# (§2) In addition, the spinosyn A resistant flies were >100-fold resistant (based on LD50) to the new class of spinosyns, represented by the 21-butenyl spinosyns.
# [3] = test system: Drosophila melanogaster flies of a spinosyn-resistant strain; assay: Fly mortality screen, spinosyn-resistant flies; type: in vivo; settings: for mortality: 100 ppm in 10% sucrose via cotton wicks, 72 hours post-treatment, spinosyn-resistant flies; for resistance of spinosyn A resistant flies compared to wild-type flies (based on LD50): dose-response data, LD50 resistant vs wild-type
# Method: as §1, §2
# [4] = test system: 30D/ric-3; type: cell-based, Drosophila melanogaster; settings: spinosyn A 10 μM for 60 seconds, oocytes clamped to −60 mV, peak current; further: key: '−' indicates a negligible current was induced; '+' indicates a small amplitude current; '++' indicates a moderate amplitude current; '++++' indicates a large amplitude current
# Method: (§3) Xenopus laevis (Xenopus 1, Ann Arbor, Mich.; Nasco, Fort Atkinson, Wis.) were anesthetized by bathing in a solution of 2 g/l tricaine methane sulfonate, and oocytes were surgically removed from the frog and placed in a culture solution that consisted of 96 mM NaCl, 2 mM KCl, 1.8 mM CaCl2, 1 mM MgCl2, 5 mM HEPES, 2.5 mM Na-pyruvate, 100 units/ml penicillin, and 0.1 mg/ml streptomycin, pH 7.6. Oocytes were dispersed in a nominally zero Ca^2+ protease treatment solution to defolliculate the oocytes. The protease treatment solution consisted of either 88 mM NaCl, 2.5 mM KCl, 1 mM MgCl2, 5 mM HEPES, 2.5 mM Na-pyruvate, 100 units/ml penicillin, and 0.1 mg/ml streptomycin, pH 7.6 plus 1.5 mg/ml collagenase IA (Sigma Chemical Co., St. Louis, Mo.). After isolation, the oocytes were thoroughly rinsed and returned to the above Ca^2+ containing culture solution and stored at 18° C.
# (§4) Synthesis of cRNA was performed as follows: Plasmid DNA was linearized with one of the following restriction enzymes; Not I, Xho I or Nhe I. The linearized DNA was subsequently used as template for cRNA synthesis using T7 mMessage mMachine kit (Ambion, Austin, Tex.) following the manufacturer's instructions.
# (§5) Micropipettes for injection of cRNA into Xenopus oocytes were pulled on a DMZ-Universal Puller (Zeitz-Instruments, München, Germany). The cRNA to be injected was drawn up into the micropipette with negative pressure. Approximately 10-50 ng of cRNA was injected into the oocytes by applying positive pressure using a Nanoject II oocyte injector (Drummond Scientific Co., Broomall, Pa.). Nucleic acid was introduced into the oocytes as follows: (1) nicotinic acetylcholine receptor alpha-6 subunit subunit (30D) (2) nicotinic alpha-7 receptor subunit (34E); (3) nicotinic acetylcholine receptor alpha-6 subunit and C. elegans ric-3 (30D and ric-3); (4) nicotinic alpha-7 receptor subunit and C. elegans ric-3 (34E and ric-3); (5) nicotinic acetylcholine receptor alpha-6 subunit and nicotinic alpha-7 receptor subunit (30D and 34E); and, (6) nicotinic acetylcholine receptor alpha-6 subunit, nicotinic alpha-7 receptor subunit and C. elegans ric-3 (30D, 34E and ric-3).
# (§6) The control external solution for voltage clamp recordings consisted of 88 mM NaCl, 1 mM KCl, 0.41 mM CaCl2, 2.4 mM NaHCO3, 0.3 mM Ca(NO3)2, 0.82 mM MgSO4.7H2O, and 15 mM HEPES, pH 7.6. The recording chamber was continuously perfused with a gravity-fed perfusion system. Nicotine (1 mM) was added to the external solution and then added to the perfusate for 30 seconds. Then, nicotine was washed from the external solution a minimum of 10 minutes. Thereafter, spinosyn A was dissolved in dimethylsulfoxide (DMSO) and then dissolved in the external solution at a final concentration of 10 μM and then added to the perfusate for 60 seconds. Then, the spinosyn A was washed from the external solution. The final concentration of DMSO never exceeded 0.1% (v/v).
# [5] = test system: 34E/ric-3; type: cell-based, Drosophila melanogaster; further: key: '−' indicates a negligible current was induced; '+' indicates a small amplitude current; '++' indicates a moderate amplitude current; '++++' indicates a large amplitude current
# Method: as §3, §4, §5, §6
# [6] = test system: nicotinic acetylcholine receptor alpha-5 subunit (34E); type: cell-based, Drosophila melanogaster; further: key: '−' indicates a negligible current was induced; '+' indicates a small amplitude current; '++' indicates a moderate amplitude current; '++++' indicates a large amplitude current
# Method: as §3, §4, §5, §6
# [7] = test system: nicotinic acetylcholine receptor alpha-6 subunit (30D); type: cell-based, Drosophila melanogaster; further: key: '−' indicates a negligible current was induced; '+' indicates a small amplitude current; '++' indicates a moderate amplitude current; '++++' indicates a large amplitude current
# Method: as §3, §4, §5, §6
# [8] = test system: 34E/30D/ric-3; type: cell-based, Drosophila melanogaster; parameters: key to the marks not given beside the values; settings: spinosyn A 10 μM for 60 seconds, oocytes clamped to −60 mV, peak current
# Method: as §3, §4
# (§7) Micropipettes for injection of cRNA into Xenopus oocytes were pulled on a DMZ-Universal Puller (Zeitz-Instruments, München, Germany). […]
# [9] = test system: 34E/30D; type: cell-based, Drosophila melanogaster; parameters: key to the marks not given beside the values; settings: spinosyn A 10 μM for 60 seconds, oocytes clamped to −60 mV, peak current
# Method: as §3, §4, §7
# [10] = test system: Dα6-nicotinic receptor; type: binding, Drosophila melanogaster
# Method: Xenopus oocytes were injected as previously described for the electrophysiological assay and were used intact for binding assays.
# Two main radioligands were used in binding assays: the conventional α7 radioligand, [^3]methyllycaconitine (MLA) and [^3]dihydrospinosyn A (DHSA). For both radioligands, the Binding Buffer used consisted of 10 mM sodium phosphate (7.2-7.4). All experiments using D.Mel-2 cell suspensions were carried out with 50 μl of cell suspension. For Xenopus oocyte binding assays, oocytes were pooled (2-5 oocytes) and transferred to 1 ml Binding Buffer. This was followed by gently aspirating the Binding Buffer and replacing with fresh Binding Buffer twice, to wash out any residual oocyte bathing media. The final volume of buffer added to each pool of oocytes was 50-100 μl. […] Subsequent dilutions were made in Binding Buffer. The final concentration of solvent was maintained at less than 0.1% in each well. […] For the cell extracts, bound radioactivity and free radioactivity fractions were separated by gentle vacuum through GF/C glass fiber filter mats using a TomTec (CT) 96-well cell harvester. […] Filter mats were dried in an oven at 60° C. and the radioactivity from samples was counted for three minutes with a Wallac MicroBeta Counter (Wallac, Conn.) using Meltilex solid-scintillant (PerkinElmer, Finland). […]
# [11] = D.Mel-2 cells expressing D α6 and C. elegans ric3
compound,measurement,setting,value
CN1[C@@H](CC(=O)c2ccccc2)CCC[C@H]1C[C@H](O)c1ccccc1 [lobeline],displacement of [3H]DHSA binding,[1]; [11],did not significantly displace
CC[C@H]1CCC[C@H](O[C@H]2CC[C@H](N(C)C)[C@@H](C)O2)[C@@H](C)C(=O)C2=C[C@H]3[C@@H]4C[C@H](O[C@@H]5O[C@@H](C)[C@H](OC)[C@@H](OC)[C@H]5OC)C[C@H]4CC[C@H]3[C@@H]2CC(=O)O1 [dihydrospinosyn A],displacement of [3H]DHSA binding,[1]; [11],significant displacement
NS(=O)(=O)c1cc(C(=O)O)c(NCc2ccco2)cc1Cl [furosemide],displacement of [3H]DHSA binding,[1],No significant displacement
O=[N+]([O-])NC1=NCCN1Cc1ccc(Cl)nc1 [imidacloprid],displacement of [3H]DHSA binding,[1]; [11],did not significantly displace
21-butenyl spinosyn,mortality,[2],all wild-type flies exhibited mortality
same,mortality,[3],no significant mortality
same,resistance of spinosyn A resistant flies compared to wild-type flies (based on LD50),[3],> 100 fold
Clc1ccc(C2CC3CCC2N3)cn1 (centres unmarked) [epibatidine],displacement of [3H]DHSA binding,[1]; [11],did not significantly displace
"CC[C@H]1CCC[C@H](O[C@H]2CC[C@H](N(C)C)[C@@H](C)O2)[C@@H](C)C(=O)C2=C[C@@H]3[C@@H](C=C[C@@H]4C[C@@H](O[C@@H]5O[C@@H](C)[C@H](OC)[C@@H](OC)[C@H]5OC)C[C@@H]34)[C@@H]2CC(=O)O1 [Spinosyn A, spinosyn A]",Spinosyn A Response,[4],+
same,Spinosyn A Response,"[5]; 34E/ric-3, spinosyn A 10 μM for 60 seconds, oocytes clamped to −60 mV, peak current",−
same,Spinosyn A Response,"[6]; 34E, spinosyn A 10 μM for 60 seconds, oocytes clamped to −60 mV, peak current",−
same,Spinosyn A Response,"[7]; 30D, spinosyn A 10 μM for 60 seconds, oocytes clamped to −60 mV, peak current",−
same,Spinosyn A Response,[8],++++
same,Spinosyn A Response,[9],++
same,% Displacement of Total Binding,"[10]; 10 μM, [3H]MLA, intact Xenopus oocytes 3 days post-injection with Dmα6",72%
same,displacement of [3H]DHSA binding,[1]; [11],significant displacement
same,mortality,[2],all wild-type flies exhibited mortality
same,mortality,[3],no significant mortality
same,resistance of spinosyn A resistant flies compared to wild-type flies (based on LD50),[3],at least 100 fold
C[C@H](O)[C@H](O)[C@@H](O)[C@@H](O)C=O [rhamnose],displacement of [3H]DHSA binding,[1]; [11],No significant displacement
alpha-bungarotoxin,displacement of [3H]DHSA binding,[1],can be demonstrated at higher concentrations
same,overall affinity for this receptor complex,[1],relatively poor
CC[C@H]1CCC[C@H](O)[C@@H](C)C(=O)C2=C[C@@H]3[C@@H](C=C[C@@H]4C[C@@H](O[C@@H]5O[C@@H](C)[C@H](OC)[C@@H](OC)[C@H]5OC)C[C@@H]34)[C@@H]2CC(=O)O1 [pseudoagylcone of spinosyn A],displacement of [3H]DHSA binding,[1]; [11],Nor was there significant displacement
CN1COCN(Cc2cnc(Cl)s2)/C1=N\[N+](=O)[O-] [thiamethoxam],displacement of [3H]DHSA binding,[1]; [11],did not significantly displace
"CN1CCCC1c1cccnc1 (centres unmarked) [Nicotine, nicotine]",Nicotine Response,[5],+
same,Nicotine Response,[6],+
same,Nicotine Response,[7],−
same,% Displacement of Total Binding,[10],72%
same,displacement of [3H]DHSA binding,[1],displacement
C[N+](C)(C)CCOC(N)=O.[Cl-] [carbamylcholine],displacement of [3H]DHSA binding,[1]; [11],did not significantly displace
"CCN1C[C@]2(COC(=O)c3ccccc3N3C(=O)C[C@H](C)C3=O)CC[C@H](OC)[C@@]34[C@@H]5C[C@H]6[C@H](OC)[C@@H]5[C@](O)(C[C@@H]6OC)[C@@](O)([C@@H](OC)[C@H]23)[C@@H]14 [MLA, methyllycaconitine]",displacement of [3H]DHSA binding,[1]; [11],can be demonstrated at higher concentrations
same,overall affinity for this receptor complex,"[1]; [3H]DHSA binding assay, D.Mel-2 cells",relatively poor
